According to patent publication US8809368B2, “Compounds affecting gap junction activity” (Kansas State University Research Foundation, priority 2006, dated 2014):

Legend:
R28 cells = assay: Apoptosis assay, Annexin V-FITC/PI flow cytometry, R28 cells; format: cell-based, rat
Excerpt: (A) Representative flow cytometer images of R28 cells with different treatments of PQ1 and/or CoCl2. The y-axis quantifies the number of cells stained with propidium iodine and the x-axis quantifies number of cells stained with Annexin V-FITC. (B,C) Histogram of % apoptotic cells after treatment with CoCl2 and PQ1. The percentage of apoptotic cells represents cells that are Annexin V-FITC positive and both propidium iodide and Annexin V-FITC positive after different time periods.
Apoptosis assay. Approximately 70% confluent R28Cells in 25 cm2 flasks were treated with PQ1 at 10 μM for 40 min followed by treatment with 500 μM CoCl2 for different time periods to induce apoptosis. After this, cells were harvested and stained with Annexin V-FITC and propidium iodide (PI) according to the manufacturer's protocol (BioVision # K101-100). Annexin V-FITC/PI binding was analyzed by flow cytometry using a BD FACSCalibur system and data was analyzed using the CellQuest software.
The later phase of apoptosis is assessed by measuring the DNA labeling with the PI, an indicator of the cell membrane permeabilization.

[1] = system: transformed human mammary epithelial cells (HMEC); assay: Cell proliferation, HMEC; format: cell-based
Protocol: There was no effect seen on the cell proliferation in transformed human mammary epithelial cells (HMEC, data not shown).
MTT assay: This assay is done to measure cell proliferation and viability. Yellow MTT (3-(4,5-Dimethylthiazol-2-yl)-2,5-diphenyltetrazolium bromide, a tetrazole) is reduced to purple crystals, formazan in the mitochondria of living cells. A solubilization solution is added to dissolve the insoluble purple formazan product into a colored solution. The absorbance of this colored solution can be measured by a spectrophotometer. T47 D cells (20,000) were grown in 96-well plate and dosed with 10, 100, 200, 500 nM of PQ1 compound in 100 μl of complete media for 24 hours. MTT (20 μl) was added to the cells and purple formazan crystals were observed after 90 minutes. A solubilization solution (0.35 N HCl) was added to dissolve the formazan and the absorbance was measured at 595 nm wavelength with a background wavelength 690 nm by a spectrophotometer.

SW620 colon cancer cells = assay: Colony growth of SW620 colon cancer cells; format: cell-based
Protocol: However, PQ3 has an opposite effect on mammary cancer cell lines. […] A summary of PQ-mediated GJIC activity and colony growth in breast and colon cancer cells is presented in Tables 1, 2, and 3, as well as FIGS. 10-13. In FIG. 10, SW620 cells were dosed for 24 hours with PQ1 at 100, 200, 300, and 500 nM. The gap junction activity was measured as a percent of control, as previously described. It was seen that all concentrations on PQ1 increased the gap junction activity in SW620 colon cancer cells as compared to the control. In FIG. 11, the effect of PQ1 on the expression of PKCγ was studied at concentrations of 100, 200, 300 and 500 nM PQ1 for 24 hours. It is seen in FIG. 11 that PQ1 has no effect on the expression of PKCγ at the levels tested. In FIGS. 12 and 13, the effect of PQ1 on the colony growth of SW620 colon cancer cells was measured with 1-100 nM PQ1 (FIG. 12) and 10 uM PQ1 (FIG. 13).
(§1) Colony Growth Assay: T47D human breast cancer cells were treated with PQ1. Base agar plates were prepared containing 0.8% agar and 0.4% agar in Ham's F12. Cells (5×10^4 cells/33 mm2 well) were suspended in 100 μl of Ham's F12 with 0.4% agar and plated. These plates were maintained at 37° C. for 7 days and examined for the presence of colonies. Individual colonies of 40 um or greater were examined.

MEC = assay: Soft agar colony growth, MEC; format: cell-based, human; conditions: 100 nM
Protocol: Various oncogenes (e.g. ras, raf, neu, src, mos) down-regulate GJIC while several tumor suppressor genes can up-regulate GJIC. […] Cells were grown in soft agar to assess their capacity for anchorage-independent growth, which is a key feature of cell transformation due to the importance of cell-cell and cell-matrix based tumor suppression. MEC and T47D cells were treated with 10, 100, 1000, and 10000 nM PQ1 for 7 days. A graphical presentation of three experiment results is presented in log scale of PQ1 concentration. […] A 100 nM PQ1 inhibits 66% of colony growth compared to controls, without PQ1 treatment or 100 nM succinic acid.
as §1, with “Using Soft Agar. Cells” for “Assay: T47D human breast cancer cells”, “0, 10, 100, 200 and 500 nM PQ1 for 7 days.” for “PQ1.”, “mm^2” for “mm2”, “50 μm” for “40 um”

T47D cells = assay: Cell morphology, T47D cells; format: cell-based, human; conditions: varying concentrations, 24 hours
Protocol: Cell Morphology: T47D cells (1000 cells/ml) were seeded in a six-well plate for 24 hours. Next day, cells were dosed with varying concentrations of PQ1 for 24 hours. Cells were observed under a microscope before and after the experiment. No effect seen on the morphology of cells in the presence of PQ1.

COc1cc(NCCCN)c2nccc(C)c2c1Oc1cccc(C(F)(F)F)c1.O=C(O)CCC(=O)O [PQ1, 6-Methoxy-8-[(3-aminopropyl)amino]-4-methyl-5-(3-trifluoromethylphenyloxy) quinoline succinic acid] was tested, and the “protection from CoCl2-induced apoptosis” value (R28 cells; 10 μM PQ1 40 min pre-treatment, then CoCl2 500 μM) was “protected the cells significantly”, the “damage to the cells” value (R28 cells; 10 μM PQ1 only, 36 h) was “did not cause any damage” and the cell proliferation [1] was “no effect”. For the same molecule, the colony growth (SW620 colon cancer cells; 10 uM) was “completely inhibits”, the colony growth (SW620 colon cancer cells; 1-100 nM) was “no effect” and the colony growth (MEC) was “no effect”. For the same molecule, the cell morphology (T47D cells) was “No effect”.
